The values below come from publication PMC3683333, “^11C-LY2428703, a positron emission tomographic radioligand for the metabotropic glutamate receptor 1, is unsuitable for imaging in monkey and human brains” (EJNMMI Research, 2013).

Marks after values point to notes of the source that are not given here.

For one data set, the system named is P-gp. Details: method as in PMID 23135321. As to conditions: previous in vitro analyses; cited from earlier work.
Another data set addresses T1, mGluR1 (Macaca mulatta, UniProt I2CU04).
T1 construct: P2 membrane fractions were prepared from the cerebella of; from tissue; host or cells: rhesus monkey cerebellum, P2 membrane fraction
Briefly: Saturation binding assay with [^3H]LY456066, monkey cerebellar membranes. Details: species or system rhesus monkeys. As to conditions: monkeys. On the procedure:
P2 membrane fractions were prepared from the cerebella of male Sprague–Dawley rats (n = 3), male rhesus monkeys (n = 3), and female humans (n = 4). […] Nonspecific binding was defined by heterologous displacement of 1 μM LY480084 (mGlu1 antagonist) in select wells. Plates were incubated on ice for 75 min and membranes harvested on 0.3% polyethylenimine pretreated Wallac filter mats using a Tomtec Harvester MachII (Tomtec, Hamden, CT, USA). Dissociation constant (KD) and receptor density (Bmax) values were obtained in GraphPad Prism using standard nonlinear one-site binding equations. Data are presented as mean ± SEM (n = 3 to 4); one-way analysis of variance followed by Tukey's post hoc test.

A short description of data set [1]: Whole-body biodistribution and radiation dosimetry, monkey. The format is in vivo, rhesus monkeys. As to conditions: for radiation-absorbed dose: monkey data extrapolated to 70-kg adult male. On the procedure: Two male rhesus monkeys (14.1 and 19.9 kg) were scanned after intravenous injection of 318 and 274 MBq of ^11C-LY2428703, respectively. Dynamic two-dimensional scans were acquired on the GE Advance tomograph (GE Medical Systems, Milwaukee, WI, USA) in five bed positions of the body (head to upper thigh), with frames of increasing duration (15 s to 4 min) for a total scan time of up to 115 min.
Images were analyzed by placing regions of interest on the dynamic tomographic images. Regions were drawn in identifiable source organs: brain, heart, lungs, liver, spleen, gallbladder, kidneys, lumbar vertebrae, small intestine, testes, and urinary bladder. […] The mean recovery of activity in the body above the thigh measured by PET was 85.6% of the injected activity measured by a dose calibrator. This recovered total activity in the body was used as the new injected activity for each scan.
At each time point, the activity measured within the organs was converted into the fraction of the injected dose by dividing the organ activities by the recovered injected activity. The area under the curve (AUC) of each organ was calculated by the trapezoidal method until acquisition ended. The area under the curve after the acquisition of the last image (i.e., to infinity) was calculated by assuming that the decline in radioactivity after this time point occurred only via physical decay, without any further biological clearance.
Residence times from the monkeys were converted into corresponding human values by multiplying with a factor to scale organ and body weights: (bm/om) × (oh/bh), where bm and bh are the body weights of monkey and human, respectively, and om and oh are the organ weights of monkey and human, respectively.
Radiation absorbed doses were calculated from the residence times for each source organ. We used the model for a 70-kg adult male in the OLINDA/EXM computer program.

Data set [2] in a line: Pharmacological effects of injection, human. The class given is in vivo. As to conditions: three human subjects. The text has this:
Three healthy females participated in the study (29 ± 2-year old, 69 ± 13 kg). All were free from current medical and psychiatric illnesses, as assessed by medical history, physical examination, electrocardiogram, urinalysis including drug screening, and blood tests (complete blood count, serum chemistries, thyroid function test, and antibody screening for syphilis, HIV, and hepatitis B). The National Institutes of Health Central Nervous System Institutional Review Board approved the protocols and the consent forms. Written informed consent was obtained from all subjects.

On the set-up of data set [3]: method as in PMID 23135321. As to conditions: rats; cited from earlier work.

T1 sequence (I2CU04 19-1195): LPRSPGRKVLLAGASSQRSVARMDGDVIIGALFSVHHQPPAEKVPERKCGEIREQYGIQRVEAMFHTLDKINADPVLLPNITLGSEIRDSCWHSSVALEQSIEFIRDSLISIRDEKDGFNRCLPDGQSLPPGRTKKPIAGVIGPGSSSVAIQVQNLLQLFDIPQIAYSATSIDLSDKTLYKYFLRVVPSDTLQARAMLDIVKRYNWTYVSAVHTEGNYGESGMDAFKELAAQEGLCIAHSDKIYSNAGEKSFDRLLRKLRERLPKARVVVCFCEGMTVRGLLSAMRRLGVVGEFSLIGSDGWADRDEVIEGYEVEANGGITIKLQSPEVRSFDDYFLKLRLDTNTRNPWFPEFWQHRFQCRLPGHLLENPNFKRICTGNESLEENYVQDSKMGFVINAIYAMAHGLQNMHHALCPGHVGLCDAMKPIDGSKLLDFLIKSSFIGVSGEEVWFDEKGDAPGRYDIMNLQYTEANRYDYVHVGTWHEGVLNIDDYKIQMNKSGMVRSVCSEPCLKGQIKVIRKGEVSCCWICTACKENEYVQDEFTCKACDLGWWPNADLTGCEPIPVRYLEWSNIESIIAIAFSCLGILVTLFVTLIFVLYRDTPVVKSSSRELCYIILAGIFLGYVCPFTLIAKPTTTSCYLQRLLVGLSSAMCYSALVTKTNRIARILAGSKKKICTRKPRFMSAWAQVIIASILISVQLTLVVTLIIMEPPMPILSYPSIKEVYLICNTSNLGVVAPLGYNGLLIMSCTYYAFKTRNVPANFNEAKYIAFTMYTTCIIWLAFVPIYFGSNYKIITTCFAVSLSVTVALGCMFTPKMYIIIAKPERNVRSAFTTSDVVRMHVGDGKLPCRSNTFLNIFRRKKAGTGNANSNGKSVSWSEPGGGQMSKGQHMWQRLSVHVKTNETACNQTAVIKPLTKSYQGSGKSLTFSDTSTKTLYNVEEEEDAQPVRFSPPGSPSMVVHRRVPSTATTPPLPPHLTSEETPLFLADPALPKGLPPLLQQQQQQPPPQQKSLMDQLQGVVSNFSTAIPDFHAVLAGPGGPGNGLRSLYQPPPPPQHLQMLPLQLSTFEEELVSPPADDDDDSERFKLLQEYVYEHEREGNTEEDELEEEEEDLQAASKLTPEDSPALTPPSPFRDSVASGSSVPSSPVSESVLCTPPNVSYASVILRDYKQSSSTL

With `Cc1c(-c2ccc(O[11CH3])cc2)nsc1NC(=O)[C@@H]1C[C@H]1C` [^11C-LY2428703], the “substrate for P-gp” value with P-gp is listed as “not a substrate”. Besides, the “fp × Bmax/KD (=VS), effective BP” value at mGluR1 was 0.161. Also, the radiation-absorbed dose in data set [1] (heart wall) is on record as 8.2 μSv/MBq; in data set [1] (liver), 9.9 μSv/MBq; in data set [1] (other organs), “less than 7 μSv/MBq”; in data set [1] (testes), 13.7 μSv/MBq. Moreover, the effective dose in data set [1] (monkey data extrapolated to humans) is reported as 5.8 μSv/MBq. Also, the “peak uptake in liver” value in data set [1] (monkey, average peak) is “approximately 12 SUV”. For the same molecule, in data set [1] (monkey, post-injection), the “time of peak uptake in liver” value was “about 5 min”. Further, the “pharmacological effects (vital signs, electrocardiogram, laboratory testing, verbal reports)” value in data set [2] was “no pharmacological effects”. The “fp (plasma free fraction)” value in data set [3] is recorded as 2.7^a %.
